Reference: US10987349B2, “Antitumor agent and bromodomain inhibitor” (FUJIFILM Corporation, priority 2016, dated 2021)

Assays:
[1] = system: MOLT-3; test: Cell growth test (Cell Titer Blue) MOLT-3; assay type: cell-based; conditions: Homo sapiens, 72 h, MOLT-3, Acute lymphoblastic leukemia, 3 days
Experimental: (§1) Moreover, the compound of Example 14 was subjected to a cell growth test using various types of cell lines.
(§2) All cell lines other than the below-noticed cells were each seeded in a well plate, in which an RPMI-1640 medium supplemented with penicillin/streptomycin and FBS with a final concentration of 10% was placed. The human prostate cancer cell line VCaP (ATCC) was seeded in a well plate, in which DMEM medium supplemented with penicillin/streptomycin and FBS with a final concentration of 10% was placed. […] Thereafter, using Enspire Multimode Plate Reader (PerkinElmer), the amount of fluorescence at an excitation wavelength of 531 nm and a fluorescence wavelength of 615 nm was measured. Since the amount of fluorescence is in proportion to the concentration of a florescent product resorufin that is converted from resazurin as a redox dye by living cells, the amount of fluorescence was used as an indicator of the number of living cells. The growth inhibition percentage of the test compound in each concentration was calculated according to the following equation. Growth inhibition percentage (%)=(amount of fluorescence in test compound−added well)/(amount of fluorescence in DMSO−added well)×100 […]

[2] = system: NCI-H522; test: Cell growth test (Cell Titer Blue) NCI-H522; assay type: cell-based; conditions: Homo sapiens, 72 h, NCI-H522, Lung cancer, 3 days
Experimental: as §1, §2

[3] = system: HOP-62; test: Cell growth test (Cell Titer Blue) HOP-62; assay type: cell-based; conditions: Homo sapiens, 72 h, HOP-62, Lung cancer, 3 days
Experimental: as §1, §2

[4] = system: human lymphoma cell line OCI-Ly7; test: Cell growth test (Cell Titer Blue) OCI-LY7; assay type: cell-based; conditions: 72 h, 3 days
Experimental: as §1, §2

[5] = system: Daudi; test: Cell growth test (Cell Titer Blue) Daudi; assay type: cell-based; conditions: Homo sapiens, 72 h, Lymphoma, 3 days
Experimental: as §1, §2

[6] = system: KG-1; test: Cell growth test (Cell Titer Blue) KG-1; assay type: cell-based; conditions: Homo sapiens, 72 h, KG-1, Acute myeloid leukemia, 3 days
Experimental: as §1, §2

[7] = system: SW-620; test: Cell growth test (Cell Titer Blue) SW-620; assay type: cell-based; conditions: Homo sapiens, 72 h, SW-620, Colon cancer, 3 days
Experimental: as §1, §2

[8] = system: K-562; test: Cell growth test (Cell Titer Blue) K-562; assay type: cell-based; conditions: Homo sapiens, K562, 72 h, K-562, Chronic myeloid leukemia, 3 days
Experimental: as §1, §2

[9] = system: KM12; test: Cell growth test (Cell Titer Blue) KM12; assay type: cell-based; conditions: Homo sapiens, 72 h, KM12, Colon cancer, 3 days
Experimental: as §1, §2

[10] = system: NCI-H460; test: Cell growth test (Cell Titer Blue) NCI-H460; assay type: cell-based; conditions: Homo sapiens, 72 h, NCI-H460, Lung cancer, 3 days
Experimental: as §1, §2

[11] = system: SK-HEP-1; test: Cell growth test (Cell Titer Blue) SK-HEP-1; assay type: cell-based; conditions: Homo sapiens, SK-HEP1, 72 h, SK-HEP-1, Liver cancer, 3 days
Experimental: as §1, §2

[12] = system: Jurkat; test: Cell growth test (Cell Titer Blue) Jurkat; assay type: cell-based; conditions: Homo sapiens, 72 h, Acute lymphoblastic leukemia, 3 days
Experimental: as §1, §2

[13] = system: HEXIM1 gene; test: Expression of HEXIM1 gene in MV4-11 cells, RT-PCR; assay type: cell-based, human; conditions: MV4-11 cells, 10, 30 or 100 nmol/L, 6 hours
Experimental: A fluctuation in the expression of c-Myc, IL-7R and HEXIM1 genes in MV4-11 (ATCC) cells treated with the test compound was analyzed according to a reverse transcription polymerase chain reaction (RT-PCR) method.
MV4-11 cells were cultured for 6 hours in an RPMI-1640 medium supplemented with penicillin/streptomycin and FBS with a final concentration of 10%, to which the compound of Example 14 was added to a concentration of 10 nmol/L, 30 nmol/L or 100 nmol/L. On the other hand, a non-treatment group (Non-treatment) was established by culturing MV4-11 cells for 6 hours in the above-described medium, to which the compound of Example 14 was not added. Using Rneasy (registered trademark) (Qiagen), RNA was extracted from the above-described MV4-11 cells in accordance with the instruction manual included with the aforementioned device. […] Thereafter, a PCR reaction was carried out for 40 cycles (a cycle consisting of 95° C.-5 seconds and 60° C.-30 seconds.) Subsequently, the obtained reaction product was measured.
As a housekeeping gene, the expression level of GAPDH (Glyceraldehyde 3-phosphate dehydrogenase) was also evaluated. The ratio of the expression level of the mRNA of each of c-Myc, IL-7R and HEXIM1 to the expression level of GAPDH was calculated, and the expression level of each gene (relative expression level) was then quantified. […]

[14] = system: SU-DHL-4; test: Cell growth test (Cell Titer Blue) SU-DHL-4; assay type: cell-based; conditions: Homo sapiens, 72 h, SU-DHL-4, Lymphoma, 3 days
Experimental: as §1, §2

[15] = system: WSU-DLCL2; test: Cell growth test (Cell Titer Blue) WSU-DLCL2; assay type: cell-based; conditions: Homo sapiens, WSUDLCL2, 72 h, WSU-DLCL2, Lymphoma, 3 days
Experimental: as §1, §2

GI50 [1]: 317 nM
GI50 [2]: 155 nM
GI50 [4]: 274 nM
GI50 [5]: 165 nM
GI50 [7]: 273 nM
GI50 [8]: 17 nM
GI50 [10]: 2030 nM
GI50 [11]: 2500 nM
GI50 [12]: 129 nM
GI50 [14]: 49 nM
SMILES: CCn1c(=O)cc(C2CCN(C)CC2)c2cc(C(=O)N(C)c3ccc(C)cc3)ccc21 [Example 14, 1-Ethyl-N-methyl-N-(4-methylphenyl)-4-(1-methylpiperidin-4-yl)-2-oxo-1,2-dihydroquinoline-6-carboxamide]
GI50 [3]: 143 nM
GI50 [6]: 57 nM
GI50 [9]: 1490 nM
mRNA expression of HEXIM1 (GAPDH correction) [13]: increased
GI50 [15]: 91 nM
